Experimental findings from US20060142321A1, “5-HT7 receptor antagonists” (priority 2004, published 2006) are described below.

This test has as its target T1, Cloned Human Serotonin Receptor, Subtype 7 (h5HT7) (Homo sapiens, UniProt P34969).
T1 construct: purchased PerkinElmer 6120512; host or cells: CHO cells (membranes coated on Basic FlashPlate SMP200)
In words: Radioligand binding assay, [125I]LSD, cloned h5HT7 expressed in CHO cells (Flashplate). The note with it: [125I]LSD 0.82 nM, room temperature, 240 minutes, read-out: 5-HT7 IC-50. As to the method: Biological Assays Radioligand Binding
Radioligand binding assays were performed using the Cloned Human Serotonin Receptor, Subtype 7 (h5HT7), expressed in CHO cells, coated on Flashplate (Basic FlashPlate Cat.: SMP200) from PerkinElmer (Cat.: 6120512). The protocol assay was essentially the recommended protocol in the Technical Data Sheet by PerkinEmer Life and Analytical Sciences. The Mass membrane protein/well was typically 12 μg and the Receptor/well was about 9-10 fmoles. The Flashplate were let equilibrate at room temperature for one hour before the addition of the components of the assay mixture. The binding buffer was: 50 mM Tris-HCl, pH 7.4, containing 10 mM MgCl2, 0.5 mM EDTA and 0.5% BSA. The radioligand was [^125I]LSD at a final concentration of 0.82 nM. Nonspecific binding was determined with 50 μM of Clozapine. The assay volume was 25 μl. TopSeal-A were applied onto Flashplate microplates and they were incubated at room temperature for 240 minutes in darkness. The radioactivity were quantified by liquid scintillation spectrophotometry (Wallac 1450 Microbeta Trilux) with a count delay of 4 minutes prior to counting and a counting time of 30 seconds per well. Competition binding data were analyzed by using the LIGAND program (Munson and Rodbard, LIGAND: A versatile, computerized approach for characterization of ligand-binding systems. Anal. Biochem. 107: 220-239, 1980) and assays were performed in triplicate determinations for each point.

Counter-ions that a name gives are not always drawn.

T1 sequence (P34969 whole entry): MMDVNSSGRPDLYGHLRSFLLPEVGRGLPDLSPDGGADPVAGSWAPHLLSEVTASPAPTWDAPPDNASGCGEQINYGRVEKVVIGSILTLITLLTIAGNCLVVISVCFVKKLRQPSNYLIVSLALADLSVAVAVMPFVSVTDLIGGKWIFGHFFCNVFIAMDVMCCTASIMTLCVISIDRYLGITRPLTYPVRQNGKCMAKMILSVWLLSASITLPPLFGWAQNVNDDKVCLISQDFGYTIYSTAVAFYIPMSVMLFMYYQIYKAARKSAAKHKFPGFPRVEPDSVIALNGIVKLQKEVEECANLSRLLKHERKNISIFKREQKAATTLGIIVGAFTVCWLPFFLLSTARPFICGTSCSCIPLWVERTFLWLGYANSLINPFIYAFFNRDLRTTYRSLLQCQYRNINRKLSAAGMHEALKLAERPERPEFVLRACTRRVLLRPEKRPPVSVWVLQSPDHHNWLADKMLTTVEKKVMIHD

With `COc1cc2c3c(c1OC)CCC3N(CCCNS(=O)(=O)c1cc(Cl)ccc1Cl)CC2` (stereo not shown) [Compound 56, 2,5-Dichloro-N-[3-(7,8-dimethoxy-2,2a,4-5-tetrahydro-1H-3-aza-acenaphthylen-3-yl)-propyl]-benzene sulfonamide hydrochloride], the IC50 was 156 nM.
As to `COc1cc2c3c(c1OC)CCC3N(CCCNS(=O)(=O)c1cc(F)c(F)cc1Cl)CC2` (stereo not shown) [Compound 58, 2-Chloro-N-[3-(7,8-dimethoxy-2,2a,4-5-tetrahydro-1H-3-aza-acenaphthylen-3-yl)-propyl]-4,5-difluoro-benzene sulfonamide hydrochloride], the IC50 is 189 nM.
Regarding `Cc1cc(S(=O)(=O)NCCCCN2CCc3cccc4c3C2CC4)c(C)cc1Cl` (stereo not shown) [Compound 7, 4-Chloro-2,5-dimethyl-N-[4-(2,2a,4-5-tetrahydro-1H-3-aza-acenaphthylen-3-yl)-butyl]-benzenesulfonamide hydrochloride], the IC50 is 79.2 nM.
As for `O=S(=O)(NCCCN1CCc2cccc3c2C1CC3)c1cc(Cl)ccc1Cl` (stereo not shown) [Compound 15, 2,5-Dichloro-N-[3-(2,2a,4-5-tetrahydro-1H-3-aza-acenaphthylen-3-yl)-propyl]-benzenesulfonamide hydrochloride], the figure is 142 nM.
